The structures appear in SMILES notation.

The first assay addresses T1, menin (Homo sapiens, UniProt O00255).
T1 sequence (O00255 1-610): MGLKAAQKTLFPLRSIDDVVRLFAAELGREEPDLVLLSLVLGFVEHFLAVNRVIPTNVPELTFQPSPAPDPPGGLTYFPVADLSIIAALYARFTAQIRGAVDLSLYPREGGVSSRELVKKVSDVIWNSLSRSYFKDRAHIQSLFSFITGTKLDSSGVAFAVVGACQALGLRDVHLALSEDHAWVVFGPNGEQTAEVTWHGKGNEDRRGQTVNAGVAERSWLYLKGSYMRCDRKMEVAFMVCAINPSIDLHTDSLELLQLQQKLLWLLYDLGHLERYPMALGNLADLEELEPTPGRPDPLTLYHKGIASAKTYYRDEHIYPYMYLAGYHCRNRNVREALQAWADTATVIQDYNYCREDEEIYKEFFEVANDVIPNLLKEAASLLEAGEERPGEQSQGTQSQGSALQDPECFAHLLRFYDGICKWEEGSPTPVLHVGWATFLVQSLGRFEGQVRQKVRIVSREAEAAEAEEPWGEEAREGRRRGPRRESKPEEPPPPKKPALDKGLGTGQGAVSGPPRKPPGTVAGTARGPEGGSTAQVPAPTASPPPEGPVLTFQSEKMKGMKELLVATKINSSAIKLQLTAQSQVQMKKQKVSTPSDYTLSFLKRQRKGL
The assay can be described thus: Crystal structure of menin in complex with compound. The following applies: FIG. 1.
Regarding `C=CS(=O)(=O)N1CCN(CCn2c(C#N)cc3c(C)c(CN4CCC(Nc5ncnc6sc(CC(F)(F)F)cc56)CC4)ccc32)CC1` [Compound 3, 4-methyl-1-(2-(4-vinylsulfonylpiperazin-1-yl)ethyl)-5-((4-((6-(2,2,2-trifluoroethyl)thieno[2,3-d]pyrimidin-4-yl)amino)piperidin-1-yl)methyl)-1H-indole-2-carbonitrile], the “covalent binding of the compound to a Cys residue on menin” value was “covalent binding of the compound to a Cys residue on menin”.

The target in another assay is T2, menin-MLL interaction (Homo sapiens, UniProt O00255).
T2 sequence (O00255 1-610): T1 sequence (O00255 1-610)
Nature of the assay: Fluorescence polarization (FP) competition assay of the menin-MLL interaction. The assay is classed as binding. The note with it: inhibition of the menin-MLL interaction; read-out: IC50 values for Table 1 inhibitors of menin.
With `C=CS(=O)(=O)N1CCN(CCn2c(C#N)cc3c(C)c(CN4CCC(Nc5ncnc6sc(CC(F)(F)F)cc56)CC4)ccc32)CC1` [Compound 3, 4-methyl-1-(2-(4-vinylsulfonylpiperazin-1-yl)ethyl)-5-((4-((6-(2,2,2-trifluoroethyl)thieno[2,3-d]pyrimidin-4-yl)amino)piperidin-1-yl)methyl)-1H-indole-2-carbonitrile], the 50% inhibitory concentration (IC50) is less than 30 nM. As to `C=CC(=O)Nc1cccc(CCn2c(C#N)cc3c(C)c(CN4CCC(Nc5ncnc6sc(CC(F)(F)F)cc56)CC4)ccc32)c1` [Compound 190], the IC50 fell in the range of 100 to 1000 nM.

Regarding `C=CC(=O)Nc1cn(CCn2c(C#N)cc3c(C)c(CN4CCC(Nc5ncnc6sc(CC(F)(F)F)cc56)CC4)ccc32)cn1` [Compound 192], the IC50 is 100 to 1000 nM. Take `Cc1c(CN2CCC(Nc3ncnc4sc(CC(F)(F)F)cc34)CC2)ccc2c1cc(C#N)n2CCc1ccc(N)c(C#N)c1` [Compound 193]: the IC50 lay in the range of 100 to 1000 nM. `C=CC(=O)Nc1ccc(CCn2c(C#N)cc3c(C)c(CN4CCC(Nc5ncnc6sc(CC(F)(F)F)cc56)CC4)ccc32)cc1C#N` [Compound 194]: the IC50 was 30 to 100 nM.

With `Cc1c(CN2CCC(Nc3ncnc4sc(CC(F)(F)F)cc34)CC2)ccc2c1cc(C#N)n2CC(O)c1cccc(S(C)(=O)=O)c1` (stereo not drawn) [Compound 197], the IC50 is 30 to 100 nM. Regarding `C=CC(=O)Nc1ccc(CCn2c(C#N)cc3c(C)c(CN4CCC(Nc5ncnc6sc(CC(F)(F)F)cc56)CC4)ccc32)cc1P(C)(C)=O` [Compound 199], the IC50 was less than 30 nM. On the same count and under the same terms, the figure for `Cc1c(CN2CCC(Nc3ncnc4sc(CC(F)(F)F)cc34)CC2)ccc2c1cc(C#N)n2CCc1ccc(P(C)(C)=O)cc1` [Compound 202] is 30 to 100 nM.

In the case of `C=CC(=O)Nc1ccc(CCn2c(C#N)cc3c(C)c(CN4CCC(Nc5ncnc6sc(CC(F)(F)F)cc56)CC4)ccc32)cc1P(=O)(CC)CC` [Compound 203], the IC50 was less than 30 nM. For the compound `Cc1c(CN2CCC(Nc3ncnc4sc(CC(F)(F)F)cc34)CC2)ccc2c1cc(C#N)n2CCc1cccc(P(C)(C)=O)c1` [Compound 204], the IC50 lay in the range of 30 to 100 nM.

Take `CP(C)(=O)c1cc2cc(CN3CCC(Nc4ncnc5sc(CC(F)(F)F)cc45)CC3)ccc2[nH]1` [Compound 205]: the IC50 is greater than 1000 nM. `C=CC(=O)Nc1ccc(CCn2c(C#N)cc3c(C)c(CN4CCC(Nc5ncnc6sc(CC(F)(F)F)cc56)CC4)ccc32)cc1P(=O)(C(C)C)C(C)C` [Compound 206]: the IC50 lay in the range of 100 to 1000 nM. On to `C[Si](C)(C)CCOCn1c(P(C)(C)=O)cc2cc(CN3CCC(Nc4ncnc5sc(CC(F)(F)F)cc45)CC3)ccc21` [Compound 207], for which the IC50 was greater than 1000 nM. For `C=CC(=O)N1CCC(Cn2c(C#N)cc3c(C)c(CN4CCC(Nc5ncnc6sc(CC(F)(F)F)cc56)CC4)ccc32)C1` (stereo not drawn) [Compound 208], the IC50 was 30 to 100 nM. For the compound `C=CC(=O)Nc1ccc(C(C)(O)Cn2c(C#N)cc3c(C)c(CN4CCC(Nc5ncnc6sc(CC(F)(F)F)cc56)CC4)ccc32)cn1` (stereo not drawn) [Compound 209], the IC50 lay within 30 to 100 nM. Consider `C=CC(=O)N1CCC(C(O)Cn2c(C#N)cc3c(C)c(CN4CCC(Nc5ncnc6sc(CC(F)(F)F)cc56)CC4)ccc32)CC1` (stereo not drawn) [Compound 210], for which the IC50 lay within 100 to 1000 nM. In the case of `CCC(=O)N1CCC(C(O)Cn2c(C#N)cc3c(C)c(CN4CCC(Nc5ncnc6sc(CC(F)(F)F)cc56)CC4)ccc32)CC1` (stereo not drawn) [Compound 211], the IC50 is 100 to 1000 nM. Regarding `CCC(=O)Nc1ccc(C(C)(O)Cn2c(C#N)cc3c(C)c(CN4CCC(Nc5ncnc6sc(CC(F)(F)F)cc56)CC4)ccc32)cn1` (stereo not drawn) [Compound 212], the 50% inhibitory concentration (IC50) is 30 to 100 nM. On the same count and under the same terms, next, `C=CC(=O)Nc1ccc(C2(Cn3c(C#N)cc4c(C)c(CN5CCC(Nc6ncnc7sc(CC(F)(F)F)cc67)CC5)ccc43)CC2)cn1` [Compound 216]: 100 to 1000 nM. For the compound `Cc1c(CN2CCC(Nc3ncnc4sc(CC(F)(F)F)cc34)CC2)ccc2c1cc(C#N)n2CCP(C)(C)=O` [Compound 218], the concentration for half-maximal inhibition (IC50) is 100 to 1000 nM.

Consider `C=CC(=O)NC1CCC(Cn2c(C#N)cc3c(C)c(CN4CCC(Nc5ncnc6sc(CC(F)(F)F)cc56)CC4)ccc32)C1` (stereo not drawn) [Compound 219], for which the IC50 was 30 to 100 nM. On to `C=CC(=O)N1CC2CCC(C1)N2CCn1c(C#N)cc2c(C)c(CN3CCC(Nc4ncnc5sc(CC(F)(F)F)cc45)CC3)ccc21` [Compound 229], for which the IC50 was less than 30 nM. With `C=CS(=O)(=O)N1CCN(CCn2c(C#N)cc3c(C)c(CN4CCC(Nc5ncnc6sc(CC(F)(F)F)cc56)CC4)ccc32)C[C@@H]1C` [Compound 230], the IC50 is less than 30 nM. Same read-out and setting: next, `C=CS(=O)(=O)Nc1ccc(CCn2c(C#N)cc3c(C)c(CN4CCC(Nc5ncnc6sc(CC(F)(F)F)cc56)CC4)ccc32)cc1` [Compound 231]: less than 30 nM; `C=CS(=O)(=O)NC1CCN(CCn2c(C#N)cc3c(C)c(CN4CCC(Nc5ncnc6sc(CC(F)(F)F)cc56)CC4)ccc32)CC1` [Compound 232]: less than 30 nM.

Consider `C=CC(=O)N1CCC(Cn2c(C#N)cc3c(C)c(CN4CCC(Nc5ncnc6sc(CC(F)(F)F)cc56)CC4)ccc32)CC1` [Compound 233], for which the IC50 lay within 30 to 100 nM.

With `[2H]C([2H])=C([2H])C(=O)Nc1ccc(CCn2c(C#N)cc3c(C)c(CN4CCC(Nc5ncnc6sc(CC(F)(F)F)cc56)CC4)ccc32)cc1` [Compound 241], the IC50 lay within 30 to 100 nM. With `[2H]C([2H])=C([2H])C(=O)Nc1ccc(C(O)Cn2c(C#N)cc3c(C)c(CN4CCC(Nc5ncnc6sc(CC(F)(F)F)cc56)CC4)ccc32)cn1` (stereo not drawn) [Compound 242], the IC50 lay within 30 to 100 nM. Turning to `C=CC(=O)Nc1ccc([C@](C)(O)Cn2c(C#N)cc3c(C)c(CN4CCC(Nc5ncnc6sc(CC(F)(F)F)cc56)CC4)ccc32)cc1` [Compound 243], the IC50 lay within 30 to 100 nM. For the compound `C=CC(=O)Nc1ccc([C@@](C)(O)Cn2c(C#N)cc3c(C)c(CN4CCC(Nc5ncnc6sc(CC(F)(F)F)cc56)CC4)ccc32)cc1` [Compound 244], the 50% inhibitory concentration (IC50) lay within 30 to 100 nM. The same measure, in the same setting: next, `CCC(=O)Nc1ccc(CCn2c(C#N)cc3c(C)c(CN4CCC(Nc5ncnc6sc(CC(F)(F)F)cc56)CC4)ccc32)cn1` [Compound 254]: 100 to 1000 nM.

In another assay the test system is MV4; 11 cells (harboring MLL-AF4 fusion protein). The assay can be described thus: In vivo xenograft study with MV4;11 cells injected subcutaneously. The following applies: once daily, i.p., 25 mg/kg; treatment initiated when tumors reached ~100 mm^3. On the set-up: species or system CB17 SCID mice. The source says: FIG. 3 depicts in vivo xenograft studies with MV4; 11 cells (harboring MLL-AF4 fusion protein) injected subcutaneously into CB17 SCID mice.
Efficacy Study in Mouse Xenograft Tumor Model.
Immunodeficient mice, such as 8-10 week-old female nude (nu/nu) mice, are used for in vivo efficacy studies in accordance with the guidelines approved by IACUC. Leukemia cells, such as human MV4-11 leukemia cells available from ATCC, are implanted subcutaneously via needle into female nude mice (5×10^6 cells/mouse). When the tumor reaches a size of approximately 100 mm^3 in mice, the tumor-bearing mice are randomly assigned to a vehicle control or compound treatment group (8 animals per group). Animals are treated with a compound of the present invention by oral gavage or intraperitoneal injection in an appropriate amount and frequency as can be determined by the skilled artisan without undue experimentation. Subcutaneous tumor volume in nude mice and mice body weight are measured twice weekly. Tumor volumes are calculated by measuring two perpendicular diameters with calipers (V=(length×width^2)/2). Percentage tumor growth inhibition (% TGI=1−[change of tumor volume in treatment group/change of tumor volume in control group]*100) is used to evaluate anti-tumor efficacy. Statistical significance is evaluated using a one-tailed, two sample t test. P<0.05 is considered statistically significant.
Consider `C=CS(=O)(=O)N1CCN(CCn2c(C#N)cc3c(C)c(CN4CCC(Nc5ncnc6sc(CC(F)(F)F)cc56)CC4)ccc32)CC1` [Compound 3, 4-methyl-1-(2-(4-vinylsulfonylpiperazin-1-yl)ethyl)-5-((4-((6-(2,2,2-trifluoroethyl)thieno[2,3-d]pyrimidin-4-yl)amino)piperidin-1-yl)methyl)-1H-indole-2-carbonitrile], for which the tumor volume result was “strong reduction of tumor volume”.

These data come from USRE49687E1, “Thienopyrimidine and thienopyridine compounds and methods of use thereof” (The Regents of The University of Michigan, priority 2014, dated 2023).
